Test results: PMC4633953, “FR171456 is a specific inhibitor of mammalian NSDHL and yeast Erg26p” (Nature Communications, 2015)

Legend:
[1] = test system: S. cerevisiae (BY4743 strain); test: Yeast growth inhibition dose response (OD600); format: cell-based; details: Saccharomyces cerevisiae, 14 h, BY4743, 14 h, 30 °C, YPD, 2% DMSO
Description: Figure 2 FR171456 targets Erg26p in S. cerevisiae. (a) Structures of FR171456, and two related triterpenes (compound 1, compound 2). (b) Duplicate 12-point Dose response curves of wild-type diploid yeast with three compounds in a. Strain BY4743 was grown for 14 h at 30 °C in YPD media with 2% DMSO containing a dilution series of FR171456: black; Compound-1: light grey circles, and Compound-2: light grey squares. Y axis: OD600 absorbance indicating yeast growth, x axis: compound concentrations (log10 μM). (c) Haploinsufficiency and homozygous profiling (HIP resp. HOP) for FR171456 at 4 μM. Each mutant strain in the pool is represented by a circle (non-essential genes) or a square (essential genes). The, y axis represents strain sensitivity and x axis represents z-score (specificity). In (d), the z-scores of the HIP pool strains (y axis) plotted against increasing doses of FR171456 (x axis; μM). (e) Relative compound sensitivity profile of the erg26Δ/ERG26 strain across HIP experiments performed with 1,800 diverse small molecule yeast proliferation inhibitors. TEXT PRINTED IN THE PICTURE: (a) FR171456: MW 516.68; S.c. […] IC50 >200 μM | (a) Compound 2: MW 532.68; S.c. IC50 >200 μM

Erg26p [2] = biological target: T1, Erg26p (Saccharomyces cerevisiae, UniProt P53199); test: In vitro microsomal Erg26p activity assay (GC-MS)
T1 sequence (P53199 1-349): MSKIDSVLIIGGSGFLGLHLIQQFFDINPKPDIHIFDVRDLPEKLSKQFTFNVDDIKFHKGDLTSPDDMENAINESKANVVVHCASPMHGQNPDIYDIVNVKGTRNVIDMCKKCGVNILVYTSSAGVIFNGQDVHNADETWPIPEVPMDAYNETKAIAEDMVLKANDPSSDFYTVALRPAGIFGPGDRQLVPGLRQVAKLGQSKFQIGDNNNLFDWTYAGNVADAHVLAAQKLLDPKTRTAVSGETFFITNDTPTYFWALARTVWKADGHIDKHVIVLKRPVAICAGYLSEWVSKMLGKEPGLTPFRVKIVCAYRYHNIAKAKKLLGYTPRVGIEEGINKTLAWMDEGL
Description: To test this hypothesis an in vitro microsomal Erg26p activity assay[30] was used. Erg26p activity was directly assessed in the presence of increasing concentrations of FR171456 (10 nM–0.1 mM) in the presence of 150 μM carboxysterol substrate (Fig. 1c) and the cofactor NAD^+ (0.5 mM) followed by GC-MS detection of the product 4α-methyl-cholest-8,24-dien-3-one.
Wild-type yeast (FL200) microsomes were prepared as follows. Yeast cells were disrupted by glass bead homogenization (0.45-mm diameter) in 100 mM phosphate buffer (pH 7.5) containing 1.5 mM reduced glutathione and 30 mM nicotinamide for 8 min at 0 °C[44]. The cell extract was obtained by centrifugation at 10,000 × g for 20 min. Microsomes were then isolated by centrifuging the cell extract supernatant at 100,000 × g for 90 min. The resulting microsomal pellet was resuspended in 100 mM phosphate buffer (pH 7.5) containing 3 mM reduced glutathione and 20% glycerol (v/v) using an Elvehjem–Potter homogenizer. Yeast microsomes (1.2 mg of protein) were incubated in the presence of 4α-carboxy-4β-methyl-cholest-8,24-dien-3β-ol (50–300 mM) and NAD^+ (0.5 mM) for 35–45 min at 30 °C. After addition of coprostanone (2–6 μg) as internal standard, the reactions were extracted as described previously[12]. The extract was analysed by TLC on silica gel and eluted twice with CH2Cl2. The fraction migrating between a standard of 4-desmethyl-sterone (RF= 0.50) and 4,4-dimethyl-sterone (RF=0.70) was eluted and analysed using a GC-MS spectrometer (Agilent 5973 N).
In the case of inhibition assays, microsomes were incubated for 35–45 min at 30 °C in the presence of 4α-carboxy-4β-methyl-cholest-8,24-dien-3β-ol (50–300 mM) and a range of inhibitor concentration (0.01–100 μM) from which a dose–response curve was obtained allowing the corresponding I50 values to be determined.
The GC-MS spectrometer (Agilent 5973 N) was equipped with an ‘on column' injector and a capillary column (30 × 0.25 mm) coated with DB5 (H2 flow rate of 2 ml min^−1). The temperature program included a 30 °C min^−1 increase from 60 °C to 240 °C, and followed by a 2 °C/min increase from 240 °C to 280 °C. The areas of the GC peaks of coprostanone (tR=1.000) and of the produced 4α-methyl-cholest-8,24-dien-3-one (tR=1.139), corrected from endogenous component of the same tR (1.139) determined in the blank (boiled microsomes), allowed the rate of transformation of 4α-carboxy-4β-methyl-cholest-8,24-dien-3β-ol to be measured. Under these conditions, the estimated limit of detection of the 3βHSD/D activity was 0.1 nmol h^−1 mg^−1.

F. solani = test: Combination with clinical antifungal agents (Loewe synergy, growth by OD530); format: cell-based; details: in presence of FR171456 6.67 and 20 μM
Description: incubated for 24 h in increasing combined doses of FR171456 and Amphotericin B, and growth
assessed by OD530. (a) Normalised growth rates plotted as % inhibition of growth. (b) Loewe excess
heat map showing difference between predicted scores based upon the addition of each agent
alone and the actual values detected plotted as difference in % of inhibition. (c) Loewe isobologram
- a comparison of the doses of each compound needed to achieve 50% inhibition of proliferation.

Erg26p [3] = biological target: T1, Erg26p; details: wild-type yeast Erg26p ref 32; cited from earlier work
[4] = test system: ergosterol pathway intermediates in C. albicans SC5314; test: Focused metabolomics: 13C-labelled ergosterol pathway intermediates in C. albicans; format: cell-based; details: increasing doses
Description: For ^13C- labelling studies, the wild type C. albicans strain SC5314 was obtained from ATCC (Manassas, VA) and was cultured at 30 °C in YPD broth (1% yeast extract, 2% peptone, 2% dextrose) or Synthetic Medium (3% glycerol, 0.1% glucose, 65 mM NH4Cl, 1.7 mM NaCl, 7 mM KH2PO4, 1 mM CaCl2, 0.5 mM MgSO4).
Approximately 1.25 × 10^8 C. albicans cells from a saturated YPD culture were inoculated into 100 ml Synthetic Medium (SM) and grown at 30 °C to an OD of 1.0. Cells were washed once in modified SM (25 mM KPO4 pH 7.0, with glucose omitted) and suspended to 5 OD600 units per ml in modified SM.
Labelling reactions were performed in 12-ml glass tubes with PTFE-lined caps (Corning) and containing 1 ml cell suspension (∼6 × 10^7 cells), 10 μl DMSO or 10 μl compound dissolved in DMSO, 12 μl 1M D-Glucose (U^-13C6 glucose), and 10 μl 1 M (1,2^-13C2) sodium acetate (Cambridge Isotope Laboratories, Inc). Before LC-MS analysis, dried lipid extracts were dissolved in 500 μl methanol, vortexed and sonicated for 10 min.
Squalene, ergosterol, lanosterol and zymosterol were quantified using the tandem mass spectrometer API4000 triple quadrupole (AB Sciex) with atmospheric pressure chemical ionization (APCI), interfaced to an Agilent LC.
Cells (∼6 × 10^7) and compounds were preincubated 15 min at 30 °C (without shaking) before the addition of labelled substrates. Labelling was performed at 30 °C with shaking for 4 h. Reactions were stopped by adding 1 ml 30% KOH, 1 ml 100% ethanol, and 0.2 ml 2% pyrogallol. Samples were mixed and then heated at 80 °C for 30 min, then cooled to room temperature. Non-saponifiable lipids were extracted two times in petroleum ether, washed with water, dried under nitrogen gas and stored at −80 °C.
For compound calibration, 2 μM solutions in 0.1% formic acid were directly infused into the mass spectrometer. Ergosterol, lanosterol and zymosterol undergo dehydration and their molecular species are detected as [M+H-H2O]^+ while squalene is detected as [M+H]^+. Supplementary Table 4 lists the multiple reaction monitoring parameters of the sterols and squalene, as well as the ^13C incorporated metabolites. The mass spectrometer source parameters are the following: CUR=40, GS1=60, NC=4.5. TEM=450 CAD=4. A mobile phase of 0.2% formic acid in methanol and isocratic run at 0.4 ml min^−1 was employed to separate the metabolites on a Waters XBridge C18 3.5 μm 2.1 × 50 mm column. The run time was 4.5 min.

C=C(CCC(C)C1CCC2C1(C)CC(O)C13CC14C(=O)CC(O)C(C)(C(=O)NCc1ccccc1)C4C(=O)CC23O)C(C)C [Compound 1, (1R,2aR,3R,5aR,5bS,7aR,8S,9S,11aS,12aR)-N-benzyl-1,5b,9-trihydroxy-2a,8-dimethyl-3-((R)-6-methyl-5-methyleneheptan-2-yl)-7,11-dioxohexadecahydrocyclopenta[a]cyclopropa[e]phenanthrene-8-carboxamide]
IC50 [1]: > 200 µM
IC50 (Erg26p [2]): > 500 µM
decrease of inhibition relative to FR171456 (Erg26p [2]): > 300 fold

C[C@@H]1[C@H](O)[C@@H](C)/C=C/C=C/C=C/C=C/C=C/C=C/C=C/[C@H](O[C@@H]2O[C@H](C)[C@@H](O)[C@H](N)[C@@H]2O)C[C@@H]2O[C@](O)(C[C@@H](O)C[C@@H](O)[C@H](O)CC[C@@H](O)C[C@@H](O)CC(=O)O[C@H]1C)C[C@H](O)[C@H]2C(=O)O [Amphotericin B, reference compound]
amount of Amphotericin B required for maximal inhibition (F. solani): halved

CC(C)=CCC[C@@H](C)[C@H]1CC[C@H]2C3=C(CC[C@]12C)[C@@]1(C)CC[C@H](O)[C@@](C)(C(=O)O)C1CC3 (stereo partly drawn) [carboxysterol substrate, 4α-carboxy-4β-methyl-cholest-8,24-dien-3β-ol]
Km (Erg26p [3]): 550 µM

OC(Cn1cncn1)(Cn1cncn1)c1ccc(F)cc1F [fluconazole, reference compound]
effect on 13C-labelled ergosterol [4]: decrease
effect on 13C-labelled lanosterol [4]: accumulation
effect on 13C-labelled zymosterol [4]: decrease

C=C(CCC(C)C1CCC2C1(C)CC(O)C13CC14C(=O)CC(O)C(C)(C(=O)O)C4C(=O)CC23O)C(C)CO [Compound 2, (1R,2aR,3R,5aR,5bS,7aR,8S,9S,11aS,12aR)-1,5b,9-trihydroxy-3-((2R)-7-hydroxy-6-methyl-5-methyleneheptan-2-yl)-2a,8-dimethyl-7,11-dioxohexadecahydrocyclopenta[a]cyclopropa[e]phenanthrene-8-carboxylic acid]
IC50 [1]: > 200 µM
